System: HIV (LAV 1)
Experiment: microbe, parasite or virus in culture
Summary of the method: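 CEM cells were infected with HIV LAV 1 at MOI 0.05 and cultured with test substance at 10, 5, 2.5 or 1 mcg/ml, with medium exchanged periodically up to 30 days. Viable cell count and percentage were measured by trypan blue, and antigen-positive cells by immunofluorescence with anti-HIV antiserum, at 4–30 days. Values are means of two wells.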

[1] = 1 mcg/ml, 4-day addition, after 4 days
[2] = 1 mcg/ml, 4-day addition, after 7 days
[3] = 1 mcg/ml, 4-day addition, after 10 days
[4] = 1 mcg/ml, 4-day addition, after 30 days
[5] = 1 mcg/ml, continuous addition, after 4 days
[6] = 1 mcg/ml, continuous addition, after 7 days
[7] = 1 mcg/ml, continuous addition, after 10 days
[8] = 1 mcg/ml, continuous addition, after 30 days
[9] = 2.5 mcg/ml, 4-day addition, after 4 days
[10] = 2.5 mcg/ml, 4-day addition, after 7 days
[11] = 2.5 mcg/ml, 4-day addition, after 10 days
[12] = 2.5 mcg/ml, 4-day addition, after 20 days
[13] = 2.5 mcg/ml, 4-day addition, after 30 days
[14] = 2.5 mcg/ml, continuous addition, after 4 days
[15] = 2.5 mcg/ml, continuous addition, after 7 days
[16] = 2.5 mcg/ml, continuous addition, after 10 days
[17] = 2.5 mcg/ml, continuous addition, after 20 days
[18] = 2.5 mcg/ml, continuous addition, after 30 days
[19] = 5 mcg/ml, 4-day addition, after 4 days
[20] = 5 mcg/ml, 4-day addition, after 7 days
[21] = 5 mcg/ml, 4-day addition, after 10 days
[22] = 5 mcg/ml, 4-day addition, after 20 days
[23] = 5 mcg/ml, 4-day addition, after 30 days
[24] = 5 mcg/ml, continuous addition, after 4 days
[25] = 5 mcg/ml, continuous addition, after 7 days
[26] = 5 mcg/ml, continuous addition, after 10 days
[27] = 5 mcg/ml, continuous addition, after 20 days
[28] = 5 mcg/ml, continuous addition, after 30 days

In the case of `C[C@H]1COc2c(N3CCN(C)CC3)c(F)cc3c(=O)c(C(=O)O)cn1c23` [DR-3355, (-)-(S)-9-fluoro-2,3-dihydro-3-methyl-10-(4-methyl-1-piperazinyl)-7-oxo-7H-pyrido[1,2,3-de][1,4]benzoxazine-6-carboxylic acid hemihydrate], the Viable cell count [1] is reported as 220 × 10⁴ cells/ml, the “Viral antigen-positive cell percentage” value [1] is reported as 91% and the Viable cell count [2] is reported as 71 × 10⁴ cells/ml. For the same compound, the “Viral antigen-positive cell percentage” value [2] was 61%, the Viable cell count [3] was 54 × 10⁴ cells/ml and the “Viral antigen-positive cell percentage” value [3] was 56%. For the same compound, the Viable cell count (1 mcg/ml, 4-day addition, after 20 days) was 3 × 10⁴ cells/ml, the Viable cell count [4] was 68 × 10⁴ cells/ml and the “Viral antigen-positive cell percentage” value [4] was 16%. For the same compound, the Viable cell count [5] was 190 × 10⁴ cells/ml, the “Viral antigen-positive cell percentage” value [5] was 88% and the Viable cell count [6] was 65 × 10⁴ cells/ml. The “Viral antigen-positive cell percentage” value [6] was 52%, the Viable cell count [7] was 110 × 10⁴ cells/ml and the “Viral antigen-positive cell percentage” value [7] was 43%. The Viable cell count (1 mcg/ml, continuous addition, after 20 days) was 11 × 10⁴ cells/ml, the Viable cell count [8] was 360 × 10⁴ cells/ml and the “Viral antigen-positive cell percentage” value [8] was 15%. For the same compound, the Viable cell count [9] was 190 × 10⁴ cells/ml, the “Viral antigen-positive cell percentage” value [9] was 88% and the Viable cell count [10] was 76 × 10⁴ cells/ml. The “Viral antigen-positive cell percentage” value [10] was 53%, the Viable cell count [11] was 280 × 10⁴ cells/ml and the “Viral antigen-positive cell percentage” value [11] was 44%. The Viable cell count [12] was 230 × 10⁴ cells/ml, the “Viral antigen-positive cell percentage” value [12] was 30% and the Viable cell count [13] was 130 × 10⁴ cells/ml. The “Viral antigen-positive cell percentage” value [13] was 10%, the Viable cell count [14] was 210 × 10⁴ cells/ml and the “Viral antigen-positive cell percentage” value [14] was 87%. The Viable cell count [15] was 53 × 10⁴ cells/ml, the “Viral antigen-positive cell percentage” value [15] was 51% and the Viable cell count [16] was 290 × 10⁴ cells/ml. For the same compound, the “Viral antigen-positive cell percentage” value [16] was 25%, the Viable cell count [17] was 390 × 10⁴ cells/ml and the “Viral antigen-positive cell percentage” value [17] was 35%. For the same compound, the Viable cell count [18] was 270 × 10⁴ cells/ml, the “Viral antigen-positive cell percentage” value [18] was 11% and the Viable cell count [19] was 190 × 10⁴ cells/ml. The “Viral antigen-positive cell percentage” value [19] was 90%, the Viable cell count [20] was 78 × 10⁴ cells/ml and the “Viral antigen-positive cell percentage” value [20] was 59%. For the same compound, the Viable cell count [21] was 320 × 10⁴ cells/ml, the “Viral antigen-positive cell percentage” value [21] was 33% and the Viable cell count [22] was 190 × 10⁴ cells/ml. The “Viral antigen-positive cell percentage” value [22] was 36%, the Viable cell count [23] was 360 × 10⁴ cells/ml and the “Viral antigen-positive cell percentage” value [23] was 2%. For the same compound, the Viable cell count [24] was 160 × 10⁴ cells/ml, the “Viral antigen-positive cell percentage” value [24] was 87% and the Viable cell count [25] was 51 × 10⁴ cells/ml. For the same compound, the “Viral antigen-positive cell percentage” value [25] was 53%, the Viable cell count [26] was 260 × 10⁴ cells/ml and the “Viral antigen-positive cell percentage” value [26] was 37%. For the same compound, the Viable cell count [27] was 320 × 10⁴ cells/ml, the “Viral antigen-positive cell percentage” value [27] was 29% and the Viable cell count [28] was 210 × 10⁴ cells/ml. For the same compound, the “Viral antigen-positive cell percentage” value [28] was 4% and the Viable cell count (10 mcg/ml, 4-day addition, after 4 days) was 170 × 10⁴ cells/ml.
